Measurements from patent US11124509B2, “Tri-substituted imidazoles for the inhibition of TGF beta and methods of treatment” (CLAVIUS PHARMACEUTICALS, LLC, priority 2017, dated 2021).
pIC50: −log10 of the molar value. Counter-ions that a name gives are not always drawn. Like-named read-outs stand apart in the source and are kept apart here.

Columns and labels:
[1] = system: TGF-beta 1 stimulated SBE-b1a HEK 293T cells; assay: GeneBLAzer beta-lactamase reporter, TGF-beta 1 stimulated SBE-b1a HEK 293T cell-based assay (ThermoFisher SelectScreen); conditions: TGF-beta 1 0.03 nM, 5 hours, inhibitor 10,000 nM to 0.316 nM, sigmoidal dose response curve fit, read-out: Cells (SBE_HEK293T) IC50
Experimental: (§1) Exemplified compounds were confirmed to inhibit ALK5 activity in enzyme and cellular assays in the following assay systems conducted by ThermoFisher in Madison, Wis. according to their commercially available protocols.
ThermoFisher SelectScreen™ Cell-Based Pathway Profiling Service GeneBLAzer Beta-Lactamase (b1a) Reporter Technology—TGF-Beta 1 Stimulated SBE-b1a HEK 293T Cell-Based Assay
SBE-b1a HEK 293T cells were thawed and re-suspended in Assay Media (OPTI-MEM, 0.5% dialyzed FBS, 0.1 mM NEAA, 1 mM Sodium Pyruvate, 100 U/mL/100 μg/mL Pen/Strep) to a concentration of 625,000 cells/mL. 32 μL of cell suspension (20,000 cells) was added to each well of a 384-well Poly-D-Lysine assay plate. Cells in Assay Media were incubated for 16-24 hours in the plate at 37° C./5% CO2 in a humidified incubator. 4 μL of a 10× serial dilution of ALK5 inhibitors (10x=100,000-3.16 nM) was added to appropriate wells of the plate and pre-incubated at 37° C./5% CO2 in a humidified incubator with cells for 30 minutes. Final concentration of inhibitor ranged from 10,000 nM to 0.316 nM. 4 μL of 10× TGF-beta 1 (final concentration of 0.03 nM) was added to wells containing the inhibitors. The plate was incubated for 5 hours at 37° C./5% CO2 in a humidified incubator. 8 μL of 1 μM Substrate Loading Solution was added to each well and the plate was incubated for 2 hours at room temperature before being read on a fluorescence plate reader. Percent inhibition was determined compared to DMSO only control (maximal TGF-beta 1 stimulation) and sigmoidal dose response curve fit yielded IC50 values as indicated in Table 2.

TGFBR1 (ALK5) = TGFBR1 (ALK5) (Homo sapiens (Human), UniProt P36897); assay: LanthaScreen Eu Kinase Binding Assay TGFBR1 (ALK5) (ThermoFisher SelectScreen); conditions: read-out: TβRI (ALK5) Binding IC50
TGFBR1 (ALK5), sequence (P36897 34-503): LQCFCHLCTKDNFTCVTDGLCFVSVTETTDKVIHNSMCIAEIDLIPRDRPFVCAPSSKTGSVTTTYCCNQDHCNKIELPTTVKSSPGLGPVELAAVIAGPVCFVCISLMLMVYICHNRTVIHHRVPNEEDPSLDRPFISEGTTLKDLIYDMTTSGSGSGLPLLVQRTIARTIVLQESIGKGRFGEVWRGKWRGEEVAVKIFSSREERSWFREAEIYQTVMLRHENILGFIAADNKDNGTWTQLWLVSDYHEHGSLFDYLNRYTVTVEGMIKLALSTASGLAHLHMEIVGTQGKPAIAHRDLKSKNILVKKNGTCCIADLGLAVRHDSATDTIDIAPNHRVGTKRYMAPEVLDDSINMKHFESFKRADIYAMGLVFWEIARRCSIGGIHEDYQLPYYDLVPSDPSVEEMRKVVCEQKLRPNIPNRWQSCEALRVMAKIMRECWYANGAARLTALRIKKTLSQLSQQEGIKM
Experimental: as §1
ThermoFisher SelectScreen™ Biochemical Kinase Profiling Service, LanthaScreen™Eu Kinase Binding Assay TGFBR1 (ALK5)
Exemplified compounds were screened in 1% DMSO (final concentration) by 3-fold serial dilutions from 10,000 nM to 0.316 nM to produce an IC50 or at single concentrations of 10,000, 1000 and 100 nM according to the following protocol. To low volume, white 384-well plates (Greiner Cat #784207) add 160 nL 100× compound in 100% DMSO, 3.84 uL kinase buffer (50 mM HEPES, pH 7.5, 0.01% BRIJ-35, 10 mM MgCl2, 1 mM EGTA), 8 uL 2× kinase/antibody mixture in kinase buffer (final ALK5 concentration of 5 nM; final Eu-anti-GST antibody concentration of 2 nM), 4 uL 4× Tracer #178 in kinase buffer (final concentration of 5 nM). Gently shake the plates for 30 seconds and incubate at room temperature for 1 hour before reading fluorescence on a plate reader. Percent inhibition was determined compared to DMSO only control (maximal ALK5 tracer binding) and sigmoidal dose response curve fit yielded IC50 values as indicated in Table 2.

[2] = 3-fold serial dilutions 10,000 nM to 0.316 nM, ALK5 5 nM, Tracer #178 5 nM, sigmoidal dose response curve fit
[3] = compounds marked with an asterisk: evaluated at three concentrations, IC50 depicted as less than the lowest concentration producing >50% inhibition

Row | pIC50 (TGFBR1 (ALK5); [2]) | pIC50 (TGFBR1 (ALK5); [3]) | Compound | pIC50 ([1]; Homo sapiens, HEK-293T) | pIC50 [1]
1 | 5.86 |  | Cn1ccc(-c2nc(CNc3ccccc3F)[nH]c2-c2ccc3ncnn3c2)n1 [Compound 2, N-((5-([1,2,4]triazolo[1,5-a]pyridin-6-yl)-4-(1-methyl-1H-pyrazol-3-yl)-1H-imidazol-2-yl)methyl)-2-fluoroaniline hydrochloride] | < 5.00 | 
2 | 6.45 |  | Cn1ccc(-c2nc(CNc3cccc(F)c3)[nH]c2-c2ccc3ncnn3c2)n1 [Compound 6, N-((5-([1,2,4]triazolo[1,5-a]pyridin-6-yl)-4-(1-methyl-1H-pyrazol-3-yl)-1H-imidazol-2-yl)methyl)-3-fluoroaniline hydrochloride] | 5.41 | 
3 |  |  | Cn1ccc(-c2nc(CNc3ccc(Cl)cc3)[nH]c2-c2ccc3ncnn3c2)n1 [Compound 12, N-((5-([1,2,4]triazolo[1,5-a]pyridin-6-yl)-4-(1-methyl-1H-pyrazol-3-yl)-1H-imidazol-2-yl)methyl)-4-chloroaniline hydrochloride] | < 5.00 | 
4 | 8.25 |  | Cn1ccc(-c2nc(-c3ccc(C(N)=O)cc3)[nH]c2-c2ccc3ncsc3c2)n1 [Compound 37] | 7.27 | 
5 |  | > 6.00 | CC(C)n1ccc(-c2nc[nH]c2-c2ccc3nccnc3c2)n1 [Compound 53, 6-(4-(1-isopropyl-1H-pyrazol-3-yl)-1H-imidazol-5-yl)quinoxaline hydrochloride] |  | 
6 |  | > 6.00 | Cn1ccc(-c2nc(CNc3cccc(C#N)c3)[nH]c2-c2ccc3ncnn3c2)n1 [Compound 16, 3-(((5-([1,2,4]triazolo[1,5-a]pyridin-6-yl)-4-(1-methyl-1H-pyrazol-3-yl)-1H-imidazol-2-yl)methyl)amino)benzonitrile hydrochloride] | 5.45 | 
7 | 7.36 |  | Cn1ccc(-c2nc[nH]c2-c2ccc3nccnc3c2)n1 [Compound 56] | 5.98 | 
8 | 8.33 |  | Cn1ccc(-c2nc[nH]c2-c2ccc3ncsc3c2)n1 [Compound 55] | 6.88 | 
9 | 8.12 |  | NC(=O)c1ccc(-c2nc(-c3ccn(C(F)F)n3)c(-c3ccc4ncsc4c3)[nH]2)cc1 [Compound 61] | 7.19 | 
10 | 8.18 |  | N#Cc1cccc(NCc2nc(-c3ccn(C(F)F)n3)c(-c3ccc4nccnc4c3)[nH]2)c1 [Compound 47] | 7.71 | 
11 |  | > 7.00 | CC(C)n1ccc(-c2nc(CNc3cccc(F)c3)[nH]c2-c2ccc3ncnn3c2)n1 [Compound 20, N-((5-([1,2,4]triazolo[1,5-a]pyridin-6-yl)-4-(1-isopropyl-1H-pyrazol-3-yl)-1H-imidazol-2-yl)methyl)-3-fluoroaniline hydrochloride] | 5.90 | 
12 | 7.14 |  | N#Cc1ccc(-c2nc(-c3ccn(C(F)F)n3)c(-c3ccc4ncsc4c3)[nH]2)cc1 [Compound 60] |  | 
13 |  | > 6.00 | CC(C)n1ccc(-c2nc(CNc3ccc(Cl)c(F)c3)[nH]c2-c2ccc3nccnc3c2)n1 [Compound 49] |  | 
14 | 6.05 |  | CC(C)n1ccc(-c2nc(-c3ccc(C(N)=O)cc3)[nH]c2-c2ccc3nccnc3c2)n1 [Compound 59] |  | 
15 | 7.31 |  | CC(C)n1ccc(-c2nc(CNc3cccc(F)c3)[nH]c2-c2ccc3ncc(C(N)=O)n3n2)n1 [Compound 34] | 6.42 | 
16 |  | > 6.00 | Cn1ccc(-c2nc(CNc3ccccc3F)[nH]c2-c2ccc3ncccc3c2)n1 [Compound 31, 2-fluoro-N-((4-(1-methyl-1H-pyrazol-3-yl)-5-(quinolin-6-yl)-1H-imidazol-2-yl)methyl)aniline hydrochloride] | 5.05 | 
17 |  | > 6.00 | Cn1ccc(-c2nc(-c3ccc(C#N)cc3)[nH]c2-c2ccc3nccnc3c2)n1 [Compound 42] |  | 
18 |  |  | CC(C)n1ccc(-c2nc(CNc3cc(F)cc(F)c3)[nH]c2-c2ccc3nccnc3c2)n1 [Compound 39] | 7.27 | 
19 |  | > 7.00 | CC(C)n1ccc(-c2nc(CNc3cccc(F)c3)[nH]c2-c2ccc3ncc(C#N)n3n2)n1 [Compound 27] |  | 

Row | pIC50 (TGFBR1 (ALK5); [2]) | pIC50 (TGFBR1 (ALK5); [3]) | Compound | pIC50 ([1]; Homo sapiens, HEK-293T) | pIC50 [1]
20 | 6.58 |  | CC(C)n1ccc(-c2nc(CNc3ccccc3)[nH]c2-c2ccc3ncnn3c2)n1 [Compound 10, N-((5-([1,2,4]triazolo[1,5-a]pyridin-6-yl)-4-(1-isopropyl-1H-pyrazol-3-yl)-1H-imidazol-2-yl)methyl)aniline hydrochloride] | 5.57 | 
21 |  | > 7.00 | CC(C)n1ccc(-c2nc(CNc3cccc(F)c3)[nH]c2-c2ccc3ncccc3c2)n1 [Compound 26, 3-fluoro-N-((4-(1-isopropyl-1H-pyrazol-3-yl)-5-(quinolin-6-yl)-1H-imidazol-2-yl)methyl)aniline hydrochloride] |  | 
22 | 8.92 |  | Fc1cc(F)cc(NCc2nc(-c3ccn(C4CC4)n3)c(-c3ccc4nccnc4c3)[nH]2)c1 [Compound 68] | 7.96 | 
23 | 7.51 |  | CC(C)n1ccc(-c2nc(CNc3cccc(Cl)c3)[nH]c2-c2ccc3nccnc3c2)n1 [Compound 54] | 6.68 | 
24 | 6.99 |  | CC(C)n1ccc(-c2nc(CNc3cc(F)cc(F)c3)[nH]c2-c2ccc3ncnn3c2)n1 [Compound 36, N-((5-([1,2,4]triazolo[1,5-a]pyridin-6-yl)-4-(1-isopropyl-1H-pyrazol-3-yl)-1H-imidazol-2-yl)methyl)-3,5-difluoroaniline hydrochloride] | 6.29 | 
25 |  | > 6.70 | CC(C)n1ccc(-c2nc(CNc3ccccc3F)[nH]c2-c2ccc3ncccc3c2)n1 [Compound 33, 2-fluoro-N-((4-(1-isopropyl-1H-pyrazol-3-yl)-5-(quinolin-6-yl)-1H-imidazol-2-yl)methyl)aniline hydrochloride] | 5.04 | 
26 | 6.89 |  | CC(C)n1ccc(-c2nc(CNc3ccccc3F)[nH]c2-c2ccc3nccnc3c2)n1 [Compound 57] | 5.66 | 
27 | 7.34 |  | CCNC(=O)c1ccc(-c2nc(-c3ccn(C)n3)c(-c3ccc4ncsc4c3)[nH]2)cc1 [Compound 65] | 6.18 | 
28 | 6.55 |  | CN(C)C(=O)c1ccc(-c2nc(-c3ccn(C)n3)c(-c3ccc4ncsc4c3)[nH]2)cc1 [Compound 66] | 5.87 | 
29 | 5.86 |  | Cn1ccc(-c2nc(CNc3ccccc3)[nH]c2-c2ccc3ncnn3c2)n1 [Compound 4, N-((5-([1,2,4]triazolo[1,5-a]pyridin-6-yl)-4-(1-methyl-1H-pyrazol-3-yl)-1H-imidazol-2-yl)methyl)aniline hydrochloride] | < 5.00 | 
30 | 6.09 |  | Cn1ccc(-c2nc(CNc3ccc(F)cc3)[nH]c2-c2ccc3ncnn3c2)n1 [Compound 8, N-((5-([1,2,4]triazolo[1,5-a]pyridin-6-yl)-4-(1-methyl-1H-pyrazol-3-yl)-1H-imidazol-2-yl)methyl)-4-fluoroaniline hydrochloride] | < 5.00 | 
31 |  | > 7.00 | CC(C)n1ccc(-c2nc(CNc3cccc(C#N)c3)[nH]c2-c2ccc3ncc(C(N)=O)n3n2)n1 [Compound 38] | 5.50 | 
32 |  | > 7.00 | CC(C)n1ccc(-c2nc(CNc3ccc(F)c(F)c3)[nH]c2-c2ccc3nccnc3c2)n1 [Compound 48] |  | 
33 | 7.30 |  | Cn1ccc(-c2nc(-c3ccc(C(N)=O)cc3)[nH]c2-c2ccc3c(c2)OCO3)n1 [Compound 67] |  | 
34 |  |  | N-((5-([1,2,4]triazolo[1,5-a]pyridin-6-yl)-4-(1-methyl-1H-pyrazol-3-yl)-1H-imidazol-2-yl)methyl)-4-chloroaniline hydrochloride [Compound 14] |  | < 5.00
35 | 8.52 |  | Fc1cc(F)cc(NCc2nc(-c3ccn(C4CC4)n3)c(-c3ccc4ncnn4c3)[nH]2)c1 [Compound 69] |  | 
36 |  |  | CC(C)n1ccc(-c2nc(CNc3cc(F)cc(C#N)c3)[nH]c2-c2ccc3nccnc3c2)n1 [Compound 50] | 5.97 | 
37 | 6.59 |  | CC(C)n1ccc(-c2nc(CNc3ccc(Cl)c(Cl)c3)[nH]c2-c2ccc3nccnc3c2)n1 [Compound 51] |  | 
